As a reminder, the IC50 is the concentration needed to halve the response being measured.

Two compounds from patent US8487079B2, “Use of mitochondria-targeted electron scavengers as anti-inflammatory agents” (University of Pittsburgh—Of the Commonwealth System of …, priority 2007, dated 2013) can be followed below.

Assay [1] concerns LPS-induced NO production in RAW 264.7 cells. Put plainly: Nitric oxide secretion (nitrite assay) by LPS-stimulated RAW 264.7 cells. The format is cell-based, murine. The following applies: for NO secretion by LPS-stimulated RAW 264.7 cells: graded concentrations, added 1 h before LPS, 24 hours. The protocol: RAW 264.7 cells were obtained from the American Type Culture Collection (Manassas, Va.). Cells were maintained in DMEM supplemented with 10% FBS, 100 units/ml penicillin, and 100 μg/ml streptomycin at 37° C. in a humidified incubator (5% CO2, 95% air). For stimulation experiments, cells were transferred to 24-well polystyrene culture plates (Corning Life Sciences, Corning, N.Y.) at 0.3 or 1×10^6 cells/well (depending on the experiment) in 1 ml of medium per well. After overnight incubation, the medium was removed and replaced with DMEM containing 0.25% FBS. Cells were stimulated by adding 0.1 μg/ml to 1 μg/ml Escherichia coli 0111:B4 lipopolysaccharide (LPS) in the presence or absence of graded concentrations of XJB-5-131 or XJB-5-208.
(§1) Nitrite (NO2^−) concentrations were measured in cell supernatants and blood serum as an indicator of nitric oxide (.NO) production, where .NO readily oxidize into nitrites (NO2^−) and nitrates (NO3^−). The total concentration of .NO was determined by reducing NO3^− to NO2^− using cadmium and detecting NO2^− using the Greiss reagent and potassium nitrite as a standard.
(§2) Samples (200 μL) were incubated with 30% zinc sulfate to precipitate proteins and then centrifuged (4° C., 12,000 g, 5 min). Supernatants were added to 0.6 g activated cadmium (previously washed twice with each deionized H2O, 0.1 M HCl, and 0.1 NH4OH) and allowed to shake overnight at room temperature. The supernatants were removed. Greiss reagent (100 μL) was mixed with an equal volume of supernatant. Reaction between the Greiss reagent and NO2^−) yielded an azo dye that can be detected spectrophotometrically. Absorbance was measured at 550 nm using a Packard Fusion™ microplate reader (PerkinElmer, Wellesley, Mass.).
RAW 264.7 murine macrophage-like cells were incubated in the presence or absence of graded concentrations of XJB-5-131 or XJB-5-208. Concentrations of either XJB-5-131 or XJB-5-208 were dissolved in dimethyl sulfoxide (DMSO). During these experiments, the highest concentration of DMSO remaining in the cell culture was 0.18% (v/v). […]

For assay [2], the system named is iNOS mRNA in RAW 264.7 cells. The assay is described as follows: iNOS mRNA expression in LPS-stimulated RAW 264.7 cells (real-time RT-PCR). The format is cell-based, mouse. The conditions noted are these: LPS 100 ng/ml, 24 hours; for LPS-induced iNOS mRNA up-regulation: RT-PCR. Here is the method: RAW 264.7 cells and liver tissue specimens were lysed with TRI-Reagent® (Molecular Research Center, Cincinnati, Ohio). Bromochloropropane (0.5 mL) was added in order to extract total RNA. After vigorous agitation and centrifugation (4° C., 12,000 g, 12 min), the aqueous phase containing RNA was collected. The RNA was precipitated with isopropanol (0.5 mL). The pellet was washed with 75% ethanol (1 mL) and centrifuged (4° C., 12,000 g, 5 min) twice, and then dissolved in RNA-free water. Total RNA was quantified using UV spectrophotometry (GeneQuant™ pro, GE Healthcare). Extracted RNAs (1 μg/reaction) were converted to single-strand cDNAs in a 20 μL volume reaction, using the Reverse Transcriptase System Kit (Promega, Madison, Wis.) as directed by the manufacturer. In a Gene Amp® PCR System 9700 (Applied Biosystems, Foster City, Calif.), the mixture was heated to 70° C. for 10 min, maintained at 42° C. for 30 min, and then heated to 95° C. for 5 min to terminate the reaction. TaqMan® Gene Expression Assays (Applied Biosystems) for 18S (endogenous control) and mouse iNOS were used. Reaction mixtures for PCR were assembled as follows: 10 μL TaqMan® Universal PCR Master Mix (Applied Biosystems), 1 μL of each assay, 5 μL cDNA template, and 3 μL of water. PCR reactions were performed in a thermocycler 7300 Real Time PCR System (Applied Biosystems) under recommended conditions (50° C. for 2 min; 95° C. for 10 min; 95° C. for 15 s; 60° C. for 1 min). The two last steps were repeated for 40 cycles. […] The ΔC^T relative quantification method was used to calculate mRNA levels for iNOS in the samples, as previously described (Scharte M, Han X, Bertges D J et al. Cytokines induce HIF-1 DNA binding and the expression of HIF-1-dependent genes in cultured rat enterocytes. Am J Physiol Gastrointest Liver Physiol 2003, 284:G373-G384). […]
RAW 264.7 cells were incubated in presence or absence of graded concentrations of XJB-5-131 or XJB-5-208. […] After 24 hours, steady-state levels of iNOS mRNA were measured using real-time quantitative RT-PCR.
On the technique in general: Real-time PCR tracks product formation cycle by cycle.

Assay [3] relates to HMGB1 secretion by RAW 264.7 cells. Put plainly: HMGB1 secretion by LPS-stimulated RAW 264.7 cells (Western blot). The format is cell-based, murine. The following applies: LPS 1 μg/ml, 48 or 72 h, Western blot of supernatant. Here is the method:
Equal volumes of cell culture supernatants were mixed with Laemmli buffer (20% glycerol, 10% beta-mercaptoethanol, 5% SDS, 0.2 M Tris.HCl, pH 6.8, and 0.4% bromophenol blue). After boiling for 10 min, the samples were subjected to 10% SDS-polyacrylamide gel electrophoresis. The resolved proteins were transferred to Hybond™-P polyvinylidene difluoride membranes (GE Healthcare, Chalfont St. Giles, UK), and blocked with bovine lacto-transfer optimizer buffer (1×PBS, 5% nonfat milk, and 0.05% Tween® 20) for 1 h. The membranes were incubated overnight at 4° C. with a 1:2000 dilution of rabbit polyclonal anti-HMGB1 antibody (generously provided by Dr. Michael T. Lotze, University of Pittsburgh) in blocking buffer. After washing three times in 1×PBST (1×PBS with 0.3% Triton X-100), immunoblots were exposed at room temperature for 1 h to a 1:20,000 dilution of horseradish peroxidase-conjugated goat anti-rabbit secondary antibody (Sigma-Aldrich, St. Louis, Mo.). After washing three times with 1×PBST, the membranes were illuminated with the ECL Plus™ substrate (GE Healthcare) and the X-ray films exposed, according to the manufacturer's instructions.
RAW 264.7 cells were cultured in the absence or presence of LPS (1 μg/ml). Some cells were co-incubated with graded concentrations of XJB-5-131. […]
For orientation: A western blot detects proteins with antibodies after separation by electrophoresis.

Assay [4] has as its system C57B1/6J mice challenged with LPS. Put plainly: Plasma nitrite/nitrate in LPS-challenged mice. The format is in vivo. Also on record: unit not given here. The following applies: 2 μmol/kg 60 min before i.p. LPS 15 mg/kg, blood 24 h after LPS, LPS alone 321.8±70.1, control 41.8±7.0, mean±SEM, p<0.05. The protocol:
as §1, §2
All experiments using mice followed the guidelines for the use of experimental animals of the U.S. National Institutes of Health and were approved by the Institutional Animal Care and Use Committee at the University of Pittsburgh. […]

Assay [5] has as its system iNOS mRNA in hepatic tissue of LPS-challenged mice. The assay is described as follows: Hepatic iNOS mRNA expression in LPS-challenged mice. The following applies: 2 μmol/kg 1 h before i.p. LPS 15 mg/kg, 24 h after LPS, RT-PCR. Type of assay: in vivo. The protocol: RAW 264.7 cells and liver tissue specimens were lysed with TRI-Reagent® (Molecular Research Center, Cincinnati, Ohio). Bromochloropropane (0.5 mL) was added in order to extract total RNA. After vigorous agitation and centrifugation (4° C., 12,000 g, 12 min), the aqueous phase containing RNA was collected. The RNA was precipitated with isopropanol (0.5 mL). The pellet was washed with 75% ethanol (1 mL) and centrifuged (4° C., 12,000 g, 5 min) twice, and then dissolved in RNA-free water. Total RNA was quantified using UV spectrophotometry (GeneQuant™ pro, GE Healthcare). Extracted RNAs (1 μg/reaction) were converted to single-strand cDNAs in a 20 μL volume reaction, using the Reverse Transcriptase System Kit (Promega, Madison, Wis.) as directed by the manufacturer. […] The ΔC^T relative quantification method was used to calculate mRNA levels for iNOS in the samples, as previously described (Scharte M, Han X, Bertges D J et al. Cytokines induce HIF-1 DNA binding and the expression of HIF-1-dependent genes in cultured rat enterocytes. Am J Physiol Gastrointest Liver Physiol 2003, 284:G373-G384). […]
Mice were randomly pretreated with a solution containing XJB-5-131 (2 μmol/kg) or a similar volume (2 ml/kg) of vehicle, a 67:33 (v/v) mixture of DMSO and normal saline. […] Subsequently, iNOS mRNA expression was measured, using quantitative real-time RT-PCR. […]

For `CC(C)C[C@@H](/C=C/[C@H](Cc1ccccc1)C(=O)N1CCC[C@H]1C(=O)N[C@H](C(=O)N[C@@H](CCCNC(=O)OCc1ccccc1)C(=O)NC1CC(C)(C)N([O])C(C)(C)C1)C(C)C)NC(=O)OC(C)(C)C` [XJB-5-131, N-Boc-Leu-[(E)-CH═CH]-^DPhe-Pro-Val-Orn(Cbz)-N-TEMPO], the IC50 in assay [1] (Mus musculus, RAW264.7, 24 h, RAW 264.7 cells, LPS 100 or 1000 ng/ml, NO2- plus NO3- in supernatant, approximate, read-out: IC50 for inhibition of LPS-induced NO production) is roughly 3 µM. Moreover, the “NO secretion by LPS-stimulated RAW 264.7 cells” value in assay [1] is “significantly reduced”. Further, in assay [2], the “Potency in inhibiting LPS-induced iNOS up-regulation, relative to XJB-5-208” value is listed as “more potent” and the “LPS-induced iNOS mRNA up-regulation” value is given as “inhibited LPS-induced iNOS up-regulation”. In addition, in assay [3], the “LPS-induced HMGB1 secretion” value is reported as “inhibited LPS-induced HMGB1 secretion in a concentration-dependent fashion”. For the same compound, in assay [4], the “concentration of nitrites within blood plasma” value stood at 179.5±34.6. The “iNOS expression in liver samples” value in assay [5] was “attenuated iNOS expression in liver samples”.

For “N-Boc-Leu-[(E)-CH═CH]-^DPhe-N-TEMPO [XJB-5-208]”, in assay [1], the “NO secretion by LPS-stimulated RAW 264.7 cells” value was “significantly reduced”. In addition, the “LPS-induced iNOS mRNA up-regulation” value in assay [2] is on record as “inhibited LPS-induced iNOS up-regulation”.
